Experimental data taken from ChEMBL document CHEMBL5104140, “Bicyclic pyrimidine compounds as potent IRAK4 inhibitors” (Bioorg Med Chem Lett, 2022).

How the values were obtained:
[1] = Clearance in rat at 1 mg/kg, iv; format: ADME, organism-based; conditions: in vivo
[2] = Antiinflammatory activity against human dendritic cells assessed as inhibition of LPS induced IL-23 production; format: functional, cell-based; conditions: Dendritic cell
PAD = test: Induction of PAD activity against human A549 cells; format: toxicity, cell-based
THP-1 = test: Antiinflammatory activity against human THP-1 cells assessed as inhibition of LPS induced IL-23 production; format: functional, cell-based
[3] = molecular target: T1, Interleukin-1 receptor-associated kinase 4 (Homo sapiens, UniProt Q9NWZ3); test: Inhibition of IRAK4 (unknown origin)
T1 sequence (Q9NWZ3 whole entry): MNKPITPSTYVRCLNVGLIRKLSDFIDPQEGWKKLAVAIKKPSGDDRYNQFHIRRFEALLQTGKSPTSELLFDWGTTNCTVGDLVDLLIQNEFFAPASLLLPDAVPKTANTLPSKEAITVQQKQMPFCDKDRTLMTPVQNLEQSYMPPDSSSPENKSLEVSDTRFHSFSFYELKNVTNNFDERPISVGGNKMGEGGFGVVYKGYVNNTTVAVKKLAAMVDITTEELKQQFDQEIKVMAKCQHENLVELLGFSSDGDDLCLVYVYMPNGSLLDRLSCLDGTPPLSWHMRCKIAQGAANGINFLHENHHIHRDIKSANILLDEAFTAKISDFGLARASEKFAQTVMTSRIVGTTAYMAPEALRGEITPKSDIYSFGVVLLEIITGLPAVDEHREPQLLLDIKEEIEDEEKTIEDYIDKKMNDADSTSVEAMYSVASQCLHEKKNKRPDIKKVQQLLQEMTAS

[4] = Oral bioavailability in rat at 5 mg/kg; format: ADME, organism-based; conditions: in vivo
Mus musculus = test: Antiinflammatory activity against mouse assessed as inhibition of IL-1 beta-stimulated IL-6 expression at 75 mg/kg; format: functional
[5] = Plasma concentration in mouse at 75 mg/kg measured after 0.5 hrs; format: ADME, organism-based

Row | SMILES | clearance [1] [mL/min/kg] | IC50 [2] [nM] | IC50 (PAD) [nM] | IC50 (THP-1) [nM] | IC50 [3] [nM] | bioavailability [4] [%] | inhibition in vivo at 75 mg/kg (Mus musculus) [%] | concentration at 0.5 h [5] [ng/mL]
1 | NC(=O)[C@@H]1[C@H](Nc2nc(Nc3cccc(C(=O)N4CCCC4)c3)nc3ncsc23)[C@H]2C=C[C@@H]1C2 | 105 | 7300 | 4000 | 280 | 3 | – | – | –
2 | NC(=O)[C@@H]1[C@H](Nc2nc(Nc3cccc(C(=O)N4CCCC4)c3)nc3cc[nH]c23)[C@H]2C=C[C@@H]1C2 | – | 1400 | > 100000 | 3800 | 6 | – | – | –
3 | Cc1c[nH]c2nc(Nc3cccc(C(=O)N4CCCC4)c3)nc(N[C@H]3[C@@H](C(N)=O)[C@@H]4C=C[C@H]3C4)c12 | – | – | 80 | 20 | 8 | – | – | –
4 | NC(=O)[C@@H]1[C@H](Nc2nc(Nc3cccc(C(=O)N4CCC(F)C4)c3)nc3ccsc23)[C@H]2C=C[C@@H]1C2 (some centres undefined) | 82 | 40 | 2700 | 90 | 15 | 3 | – | –
5 | CN1CCN(c2cc(Nc3nc(N[C@H]4[C@@H](C(N)=O)[C@@H]5C=C[C@H]4C5)c4sccc4n3)ccc2F)CC1 | – | – | 2000 | 510 | 50 | – | – | –
6 | NC(=O)[C@@H]1[C@H](Nc2nc(Nc3cc(F)cc(C(=O)N4CCCC4)c3)nc3ccsc23)[C@H]2C=C[C@@H]1C2 | 141 | 50 | 1800 | 60 | 2 | – | – | –
7 | NC(=O)[C@@H]1[C@H](Nc2nc(Nc3cccc(C(=O)N4CCCC4)c3)nc3ccoc23)[C@H]2C=C[C@@H]1C2 | 101 | 90 | 5800 | 220 | 3 | – | – | –
8 | Cn1ccc2nc(Nc3cccc(C(=O)N4CCCC4)c3)nc(N[C@H]3[C@@H](C(N)=O)[C@@H]4C=C[C@H]3C4)c21 | 58 | 260 | 9400 | 130 | 4 | 1 | – | –
9 | NC(=O)[C@@H]1[C@H](Nc2nc(Nc3cccc(C(=O)N4CCCC4)c3)nc3[nH]ncc23)[C@H]2C=C[C@@H]1C2 | 124 | 480 | 5800 | 290 | 4 | – | – | –
10 | NC(=O)[C@@H]1[C@H](Nc2nc(Nc3cccc(C(=O)N4CCOCC4)c3)nc3ccsc23)[C@H]2C=C[C@@H]1C2 | 113 | 80 | 4900 | 150 | 6 | – | – | –
11 | NC(=O)[C@@H]1[C@H](Nc2nc(Nc3cccc(C(=O)N4CCCC4)c3)nc3[nH]cnc23)[C@H]2C=C[C@@H]1C2 | 180 | 200 | 4000 | 200 | 5 | – | – | –
12 | NC(=O)c1ccccc1Nc1nc(Nc2cccc(C(=O)N3CCCC3)c2)nc2ccsc12 | 56 | 1500 | 6400 | 240 | 19 | – | – | –
13 | NC(=O)[C@@H]1[C@H](Nc2nc(Nc3cc(F)cc(N4CCOCC4)c3)nc3ccsc23)[C@H]2C=C[C@@H]1C2 | 40 | 230 | 2300 | 110 | 12 | 24 | 30 | –
14 | NC(=O)[C@@H]1[C@H](Nc2nc(Nc3ccc(F)c(N4CCOCC4)c3)nc3ccsc23)[C@H]2C=C[C@@H]1C2 | 52 | – | 2500 | 240 | 95 | 23 | – | –
15 | NC(=O)[C@@H]1[C@H](Nc2nc(Nc3cccc(C(=O)N4CCCC4)c3)nc3ccn(C(F)F)c23)[C@H]2C=C[C@@H]1C2 | 88 | 40 | 1500 | 130 | 2 | 8 | 0 | 410
16 | CC(C)n1ncc2ccc(Nc3nc(N[C@H]4[C@@H](C(N)=O)[C@@H]5C=C[C@H]4C5)c4c(ccn4C)n3)cc21 | – | 1300 | 3300 | 500 | 4.1 | – | – | –
17 | NC(=O)[C@@H]1[C@H](Nc2nc(Nc3ccc(F)c(C(=O)N4CCCC4)c3)nc3ccsc23)[C@H]2C=C[C@@H]1C2 | 92 | 80 | 8000 | 270 | 3 | – | – | –
18 | NC(=O)[C@@H]1[C@H](Nc2nc(Nc3cc(C(=O)N4CCCC4)ccc3F)nc3ccsc23)[C@H]2C=C[C@@H]1C2 | – | – | 14000 | 11000 | 711 | – | – | –

Row | SMILES | clearance [1] [mL/min/kg] | IC50 [2] [nM] | IC50 (PAD) [nM] | IC50 (THP-1) [nM] | IC50 [3] [nM] | bioavailability [4] [%] | inhibition in vivo at 75 mg/kg (Mus musculus) [%] | concentration at 0.5 h [5] [ng/mL]
19 | NC(=O)[C@@H]1[C@H](Nc2nc(Nc3cc(F)cc(N4CCOCC4)c3)nc3ncsc23)[C@H]2C=C[C@@H]1C2 | – | – | 7500 | 2600 | 18 | – | – | –
20 | NC(=O)[C@@H]1[C@H](Nc2nc(Nc3cc(F)cc(N4CCOCC4)c3)nc3ccn(C(F)F)c23)[C@H]2C=C[C@@H]1C2 | 10 | 260 | 1000 | 220 | 9 | 37 | 0 | –
21 | NC(=O)[C@@H]1[C@H](Nc2nc(Nc3ccc(C(=O)N4CCOCC4)cc3)nc3ccsc23)[C@H]2C=C[C@@H]1C2 | – | 30 | 1100 | 70 | 14 | – | – | –
22 | NC(=O)[C@@H]1[C@H](Nc2nc(Nc3ccnc(N4CCCC4)c3)nc3ccsc23)[C@H]2C=C[C@@H]1C2 | – | – | 2600 | 200 | 206 | – | – | –
23 | NC(=O)[C@@H]1[C@H](Nc2nc(Nc3ccnc(N4CCOCC4)c3)nc3ccsc23)[C@H]2C=C[C@@H]1C2 | 132 | 100 | 2700 | 80 | 10 | 12 | – | –
24 | NC(=O)[C@@H]1[C@H](Nc2nc(Nc3ccc(OCCN4CCCC4)cc3)nc3ccsc23)[C@H]2C=C[C@@H]1C2 | – | 190 | 610 | 50 | 49 | – | – | –
25 | CC(C)n1ccc2nc(Nc3ccc4cnn(C(C)C)c4c3)nc(N[C@H]3[C@@H](C(N)=O)[C@@H]4C=C[C@H]3C4)c21 | – | 920 | 2600 | 420 | 2.7 | – | – | –
26 | Cn1ncc2nc(Nc3cccc(C(=O)N4CCCC4)c3)nc(N[C@H]3[C@@H](C(N)=O)[C@@H]4C=C[C@H]3C4)c21 | – | – | 10000 | 900 | 4 | – | – | –
27 | NC(=O)[C@H]1CCC[C@H]1Nc1nc(Nc2cccc(C(=O)N3CCCC3)c2)nc2ccsc12 | 104 | 990 | > 100000 | 260 | 17 | – | – | –
28 | NC(=O)[C@@H]1[C@H](Nc2nc(Nc3cccc(C(=O)N4CCCC4)c3)nc3[nH]ccc23)[C@H]2C=C[C@@H]1C2 | 100 | 50 | 420 | 40 | 11 | – | – | –
29 | NC(=O)[C@@H]1[C@H](Nc2nc(Nc3cccc(C(=O)N4CCCC4)c3)nc3cn[nH]c23)[C@H]2C=C[C@@H]1C2 | – | – | > 100000 | 9400 | 17 | – | – | –
30 | NC(=O)[C@@H]1[C@H](Nc2nc(Nc3cccc(C(=O)N4CCCC4)c3)nc3ccccc23)[C@H]2C=C[C@@H]1C2 | 102 | 490 | 7500 | 250 | 5 | – | – | –
31 | Cc1n[nH]c2nc(Nc3cc(F)cc(N4CCOCC4)c3)nc(N[C@H]3[C@@H](C(N)=O)[C@@H]4C=C[C@H]3C4)c12 | 47 | – | 260 | 37 | 5 | 7 | – | –
32 | O=C(c1cccc(Nc2nc(NC3C[C@@H]4CC[C@H]3C4)c3sccc3n2)c1)N1CCC(F)C1 (some centres undefined) | 143 | – | 3500 | 4700 | 98 | – | – | –
33 | NC(=O)[C@@H]1[C@H](Nc2nc(Nc3ccc(C(=O)N4CCCC4)cc3)nc3ccsc23)[C@H]2C=C[C@@H]1C2 | – | 40 | 560 | 70 | 10 | – | – | –
34 | CN1CCN(c2cc(F)cc(Nc3nc(N[C@H]4[C@@H](C(N)=O)[C@@H]5C=C[C@H]4C5)c4sccc4n3)c2)CC1 | 99 | 100 | 1500 | 80 | 12 | 16 | – | –
35 | Cc1n[nH]c2nc(Nc3cccc(C(=O)N4CCCC4)c3)nc(N[C@H]3[C@@H](C(N)=O)[C@@H]4C=C[C@H]3C4)c12 | 63 | 90 | 1600 | 80 | 3 | 27 | 0 | 65
36 | CN1CCN(c2cc(Nc3nc(N[C@H]4[C@@H](C(N)=O)[C@@H]5C=C[C@H]4C5)c4sccc4n3)ccn2)CC1 | 242 | 60 | 1700 | 80 | 7 | < 1 | – | –
